# Results from patent US20090274577A1, “STE[…] TREATMENT WITH REDUCTANT AND OXIDANT” (priority 2008, published 2009).
# System: Bacillus atrophaeus spores
# Assay: Filtering test: spores incubated in test solution, filtered, filter half treated with ozone, colonies counted
# Assay type: cell-based
# Source text: Bacterial spores: Stainless steel discs with Bacillus atrophaeus spores (log 6, cat #1-6100ST, Raven Biological Laboratories).
# An ozone generator provided ˜350 ppm O3, and a flow rate of ˜25 l/min, using setting No. 1.
# Commercially available sterile single filters (pore size 0.45 μm) and an analytical test filter funnel from Nalgene was used (F-2161, Sigma-Aldrich). For suction, a Rietschle Thomas DTF 6 vacuum pump was used, with a flow rate of ˜6 m3/h, providing a vacuum of ˜150 mbar abs.
# Filtering test: In filtering test experiments the spore solutions were prepared in a volume of 1 ml and processed. Thereto, after an incubation period of 5 min in the appropriate buffer at 40° C. using a rotary shaker, an aliquot of 250 μl of the suspension was transferred onto a sterile single use filters. The filter was washed two times with 10 ml of sterile water. The filter was retrieved under sterile conditions, and the filter was cut into halves using a sterile scissor. Only one half of the filter was treated with ozone, while the other half was kept as control, i.e. without ozone treatment. Finally, both halves were placed onto a TSA plate and incubated at 30° C. Initially Nutrient Agar plates were used, but later on a switch was made to TSA plates, in order to utilize the more pronounced reddish colour of Bacillus atrophaeus colonies which was facilitating analysis and documentation. […]
compound,measurement,setting,value
"OC(CS)C(O)CS (racemic) [DTT, DL-dithiotreitol]",reduction of viability of Bacillus atrophaeus,"liquid media comprising reductant, then sterile air with ~350 ppm ozone for 5 or 10 min",3-5 logs
same,sterilizing/disinfecting/killing effect (in words),"test solution followed by ~350 ppm ozone, 5 or 10 min",improved
